{"source": "patent US7943358B2", "about": "“Polymerase enhancing factor (PEF) extracts, PEF protein complexes, isolated PEF protein, and methods for purifying and identifying” (Agilent Technologies, Inc., priority 1997, dated 2011)", "molecules": {"B1": {"name": "P45: 45 kD component of the Pfu PEF complex, functions as a dUTPase (SEQ ID NO.: 71) (protein, listed as Pyrococcus furiosus)", "chain": "MLLPDWKIRKEILIEPFSEESLQPAGYDLRVGREAFVKGKLIDVEKEGKVVIPPREYALILTLERIKLPDDVMGDMKIRSSLAREGVIGSFAWVDPGWDGNLTLMLYNASNEPVELRYGERFVQIAFIRLEGPARNPYRGNYQGSTRLAFSKRKKL"}}, "key": {"[1]": {"test": "Heat treatment of dCTP at 95° C., reverse phase HPLC", "format": "physicochemical", "description": "FIG. 18. Reverse phase HPLC analysis of the products generated by heat-treatment of dCTP. dCTP (10 mM in cloned Pfu DNA polymerase PCR buffer) was heated at 95° C. in thin-walled tubes in a RoboCycler 40 temperature gradient block. Incubations were carried out for the following length of time: 0 (panel A), 1 hour (panel 6), or 4 hours (panel C). 10 μl of the reaction mixtures were loaded onto a Waters Delta-pak C18 column (300 angstrom/15 μm), equilibrated in 50 mM triethylammonium acetate, pH (7.0) (A). Products were eluted with acetonitrile (B) at 2 ml/min., using the following gradient: 0% B for 5 minutes, 0-10% B over 20 minutes. Absorbence of the eluate was monitored with a photodiode array detector, and peak areas were integrated at 260 nm. To the right of panels A and C are shown the same chromatograms re-integrated at a higher sensitivity. In panel D, 10 μl of 10 mM dUTP (in cloned Pfu DNA polymerase PCR buffer) was chromatographed.\ndUTP, however, is not intentionally added to PCR reactions but may be generated by spontaneous deamination of dCTP during the high temperatures used in PCR cycling (Jens-Peter Horst and Hans-Joachim Fritz. (1996) The EMBO Journal 15; 5459-5469). To assess the extent of dCTP deamination to dUTP during PCR, we incubated dCTP (10 mM) at 95° C. (PCR denaturation temperature) in the presence of cloned Pfu DNA polymerase PCR buffer. The products of heat treatment were analyzed by reverse phase-HPLC (as described above) and peak assignments were made by comparing retention times to those of standards. […] A minor peak at 12.38 minutes was also produced (0.049%/1 hr.; 0.116%/4 hr.), which was identified as dUTP, based upon its retention time (dUTP standard=12.10 minutes; panel D) and absorbence maximum."}, "[2]": {"test": "PCR cycling of dCTP alone, HPLC", "format": "physicochemical", "conditions": "30 cycles", "description": "FIG. 20. Reverse phase HPLC analysis of the products generated by PCR cycling dCTP. dCTP (10 mM in cloned Pfu DNA polymerase PCR buffer) was cycled alone (Panel A) or in the presence of 0.5 ng/μl PEF (Panel 8) or 1.25 U/μl Pfu DNA polymerase (Panel C). Cycling was carried out in a RoboCycler 40 using the following conditions: 95° C. 1 min./30 cycles of: 95° C. 1 min., 60° C. 1 min., 72° C. 10:24 min./72° C. 10 min. 10 μl of the reaction mixtures were chromatographed as described in the FIG. 18 legend. In panel D, the absorbance spectra of dCTP, dUTP, and the product generated from PCR cycling dCTP are compared. The absorbance spectra (200-300 nm) of the following were superimposed: (1) major peak at 8.3-8.8 min. from chromatogram of dCTP+Pfu unheated; (2) peak at 11.867 min. from chromatogram of dUTP in buffer unheated; (3) peak 12.150 from chromatogram C (FIG. 20) showing dCTP+Pfu cycled.\ndUTP production was also measured during PCR cycling. A dCTP solution (10 mM dCTP in cloned Pfu DNA polymerase PCR buffer) was subject to PCR cycling in a RoboCycler 40 using the cycling conditions described for the 5.2 kb “on/off” system (example 1). Products generated during PCR were analyzed by HPLC as described above. After 30 cycles, the following products were evident: 79% dCTP, 19% dCDP, 1.8% dCMP, and 0.064% dUTP (FIG. 20, panel A). […] When dCTP was cycled in the presence of Pfu DNA polymerase (50×PCR conditions, 10 mM dCTP and 1.25 U Pfu/μl reaction mix) there was no difference in the amount of dCDP, dCMP, or dUTP produced (FIG. 20, panel C). However, when dCTP was cycled in the presence of PEF (50×PCR conditions, 10 mM dCTP and 0.5 ng PEF/μl reaction mix), the following products were produced: 73% dCTP, 19% dCDP, and 8% dCMP (FIG. 20, panel B)."}, "[3]": {"biological_target": "T1, Pfu DNA polymerase (Pyrococcus furiosus, UniProt P61875)", "T1 sequence (P61875 1-775)": "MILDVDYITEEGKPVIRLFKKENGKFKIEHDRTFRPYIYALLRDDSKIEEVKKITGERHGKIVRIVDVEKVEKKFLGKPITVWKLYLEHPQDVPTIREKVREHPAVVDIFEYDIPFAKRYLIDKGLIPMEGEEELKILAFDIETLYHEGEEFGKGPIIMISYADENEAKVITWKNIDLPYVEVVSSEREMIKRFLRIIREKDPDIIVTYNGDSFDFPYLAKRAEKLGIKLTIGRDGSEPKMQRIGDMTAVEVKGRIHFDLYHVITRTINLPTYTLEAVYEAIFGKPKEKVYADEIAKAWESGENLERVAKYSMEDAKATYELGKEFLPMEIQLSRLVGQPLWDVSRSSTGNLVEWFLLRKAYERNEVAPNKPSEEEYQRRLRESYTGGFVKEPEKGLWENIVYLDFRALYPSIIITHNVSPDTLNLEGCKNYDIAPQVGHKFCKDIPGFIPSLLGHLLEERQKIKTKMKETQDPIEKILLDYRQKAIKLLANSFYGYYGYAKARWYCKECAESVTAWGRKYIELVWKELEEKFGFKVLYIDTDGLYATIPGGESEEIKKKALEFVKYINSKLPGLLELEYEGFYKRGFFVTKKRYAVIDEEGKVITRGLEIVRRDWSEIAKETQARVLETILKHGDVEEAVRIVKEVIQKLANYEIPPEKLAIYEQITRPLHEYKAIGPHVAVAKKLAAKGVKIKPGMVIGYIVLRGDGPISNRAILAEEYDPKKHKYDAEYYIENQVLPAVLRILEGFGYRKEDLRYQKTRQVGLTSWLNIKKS", "test": "0.9 kb α1-antitrypsin PCR in absence or presence of dUTP", "format": "biochemical", "description": "A relatively small (0.9 kb) fragment of the human α1-antitrypsin gene was amplified in the absence or presence of dUTP. PCR reaction mixtures contained the following (in a 100 μl volume): 1× Cloned Pfu polymerase buffer; 200 μM each, dCTP, dGTP, dATP; 200 ng oligo F91-23 (100 ng/μl); 200 ng oligo R980-23 (100 ng/μl); 125 ng Human genomic DNA; 2.5 units Pfu DNA polymerase; 200 μM total of (dTTP and dUTP) or (dTTP+PEF generated dUMP).\nPCR cycling was carried out as follows: 95° C. for 1 minute (1 cycle); 95° C. for 1 minute—58° C. for 1 minute—72° C. for 2 minutes (30 cycles).\nSeven ng of PEF can reverse the inhibition caused by as much as 20 μM dUTP (data not shown). The preferred amount of PEF or P45 used in a particular reaction can be optimized according to the principles provided here or by methods for quantifying amplification reactions known in the art."}, "[4]": {"biological_target": "T1, Pfu DNA polymerase", "test": "0.9 kb α1-antitrypsin PCR with unrelated dU-containing or control oligonucleotide", "format": "biochemical", "conditions": "per 100 ul reaction"}, "[5]": {"test": "Reverse phase HPLC analysis of dCTP conversion", "format": "biochemical", "description": "The similarity of P45 to dCTP deaminases prompted us to test whether dCTP or other nucleotide triphosphates were substrates of PEF/P45. PEF was incubated with dCTP or dUTP and the reaction products were separated by reverse phase HPLC. Reaction mixtures (50 μl) containing 1× cloned Pfu polymerase buffer, 10 mM dCTP or dUTP, and 700 ng PEF (or 5 μl of cloned p45 (˜100 ng) or nothing (neg. control)) were incubated at 72° C. for 1 hour. The samples were injected on a […] Waters Delta-pak C-18 column (300 angstrom/15 μm), equilibrated in 50 mM triethylammonium acetate, pH (7.0) (A). Products were eluted with acetonitrile (B) at 2 ml/min. using the following gradient: 0% B for 5 minutes, 0-10% B over 20 minutes. Absorbence of the eluate was monitored with a photodiode array detector, and peak areas were integrated at 260 nm."}}, "note": "Where “and” joins values, the source holds several entries; their conditions need not be identical. Equal values may be shown once."}
{"molecule": "Nc1ccn([C@H]2C[C@H](O)[C@@H](COP(=O)(O)OP(=O)(O)OP(=O)(O)O)O2)c(=O)n1", "note": "[dCTP]", "values": [{"measurement": "dCMP formed from dCTP", "setting": "[1]; 1 hr", "result": 2.8, "unit": "%"}, {"measurement": "dUTP formed from dCTP (12.38 minute peak)", "setting": "[1]; 1 hr", "result": 0.049, "unit": "%"}, {"measurement": "dCDP formed from dCTP", "setting": "[1]; 1 hr, 10 mM in cloned Pfu PCR buffer", "result": 22, "unit": "%"}, {"measurement": "dCDP formed from dCTP", "setting": "[1]; 4 hr", "result": 41, "unit": "%"}, {"measurement": "dCMP formed from dCTP", "setting": "[1]; 4 hr", "result": 25, "unit": "%"}, {"measurement": "dUTP formed from dCTP (12.38 minute peak)", "setting": "[1]; 4 hr", "result": 0.116, "unit": "%"}, {"measurement": "dCDP after PCR cycling", "setting": "[2]", "result": 19, "unit": "%"}, {"measurement": "dCMP after PCR cycling", "setting": "[2]", "result": 1.8, "unit": "%"}, {"measurement": "dCTP after PCR cycling", "setting": "[2]", "result": 79, "unit": "%"}, {"measurement": "dUTP after PCR cycling", "setting": "[2]", "result": 0.064, "unit": "%"}]}
{"molecule": "O=c1ccn([C@H]2C[C@H](O)[C@@H](COP(=O)(O)O)O2)c(=O)[nH]1", "note": "[dUMP]", "values": [{"measurement": "inhibition of Pfu polymerase-based PCR", "setting": "[3]; at concentrations of 20 μM", "result": "not inhibitory"}]}
{"molecule": "O=c1ccn([C@H]2C[C@H](O)[C@@H](COP(=O)(O)OP(=O)(O)OP(=O)(O)O)O2)c(=O)[nH]1", "note": "[dUTP, deoxyuracil triphosphate]", "values": [{"measurement": "dUTP concentration partially inhibiting amplification of the 900 bp product", "setting": "[3]; 0.1% of the dTTP+dUTP pool", "result": 0.2, "unit": "µM"}, {"measurement": "dUTP concentration completely inhibiting amplification of the 900 bp product", "setting": "[3]; as low as, 1% of the dTTP+dUTP pool", "result": 2, "unit": "µM"}]}
{"molecule": "control oligonucleotide: control oligo with dT rather than dU (SEQ ID NO: 86) (GGTTTTCCCAGTCACGACGTTGTAAAACGACGGCCAGT; DNA, backbone not given here)", "values": [{"measurement": "amount of oligo showing inhibition of the Pfu-based PCR", "setting": "[4]", "result": "16 pmol and 8 pmol"}]}
{"molecule": "dU oligo: unrelated primer complementary to M13 DNA containing 9 dUs instead of dTs (SEQ ID NO: 87) (GGUUUUCCCAGUCACGACGUUGUAAAACGACGGCCAGU; DNA, backbone, methylation of C and T or U not given here; further chemistry not fully specified)", "values": [{"measurement": "amount of oligo showing inhibition of the Pfu-based PCR", "setting": "[4]", "result": 0.8, "unit": "pmol"}]}
{"molecule": "B1", "values": [{"measurement": "deamination of dCTP", "setting": "[5]", "result": "No deamination"}]}
